Reference: patent US11364225B2, “Pharmaceutical formulation for treating symptoms of migraine and cluster headaches, and method of using the same” (BN INTELLECTUAL PROPERTIES, INC., priority 2019, dated 2022)
Read-outs that look alike come from different tables or passages of the source.

Tests used:
[1] = Treatment of migraine headache symptoms (pain phase) with an inhaled plume of particles from an active mesh nebulizer; assay type: in vivo, patient (adult)
Method: In a non-limiting example, an adult with a history of chronic migraine headaches was treated for migraine headache symptoms during the pain phase using an inhaled plume of particles from an active mesh nebulizer as described herein, and as described in U.S. patent application Ser. No. 16/836,485, titled “NEBULIZER FOR TIME-REGULATED DELIVERY”. The person was provided with an active mesh nebulizer containing a solution of sumatriptan succinate in water at 0.1996 weight % (wt %) [e.g., 4 mg sumatriptan succinate in 2 grams of water, such that (0.004 g sumatriptan succinate/2.004 g solution)*100=0.1996 wt % sumatriptan succinate] which produced a plume of particles where over 95% of the particles have individual particle diameters ranging from about 0.5 μm to about 3.0 μm. The active mesh nebulizer was configured to produce a plume of particles by nebulizing the sumatriptan succinate solution at a rate of 0.2 milliliters per minute (ml/min) for one minute, resulting in a patient dose for a first inhalation session (e.g., six 10-second inhaled plume pulses) of not more than 4 mg sumatriptan succinate.
The person had indicated in their medical history that they had regularly experienced migraine headache symptoms, at a frequency of about 3-4 episodes per week, over several months prior to the treatment.

[2] = cited from earlier work

Compound | migraine headache symptoms, self-evaluated after treatment ([1]; one adult with chronic migraine, inhaled, 0.1996 wt % solution in water, six 10-second plume pulses, not more than 4 mg, evaluated after waiting 5 minutes) | remission after treatment ([1]; same patient, about 3-4 episodes per week before treatment) | relief time (patient relief) ([2]; intra-nasal delivery, according to theory and belief) [min] | relief time (patient relief) ([2]; sub-cutaneous delivery, after injection) [min] | relief time (symptom relief) ([2]; sub-lingual delivery, according to theory and belief) [min]
CNS(=O)(=O)Cc1ccc2[nH]cc(CCN(C)C)c2c1 [sumatriptan succinate] | completely abated | more than seven days | 30 to 60 | 60 to 90 | –
CN(C)CCc1c[nH]c2ccc(C[C@H]3COC(=O)N3)cc12 [zolmitriptan] | – | – | – | – | ≤ 30
